Assay results: patent US6245757A, “Use of progestins to treat ischemic event” (priority 1998, dated 2001)

What was measured:
[1] = tested on: middle cerebral artery occlusion (MCAO) rats; experiment: Infarct volume after MCAO (TTC staining), Example 1; format: in vivo, Male Wistar rats; conditions: for % Infarct volume (to the contralateral hemisphere): 48 h post MCAO, n=12, mean ± S.E.M., DMSO group 35.1 ± 4.5; for decrease of percent infarct volume compared with DMSO treated control group: 4.0 mg/kg i.p.
GABA receptor [2] = conditions: neurons; cited from earlier work
GABA receptor [3] = conditions: physiological levels of PROG, in vivo; cited from earlier work
[4] = tested on: central nervous system (CNS); conditions: cited from earlier work
[5] = tested on: middle cerebral artery occlusion (MCAO) rats; experiment: Neurological deficit score after MCAO (Zea Longa scale 0-4), Example 1; conditions: for Neurologic Score: scale 0-4, mean ± S.E.M., DMSO group 1.8 ± 0.1
Description: (§1) Briefly, the right common carotid artery, external carotid artery (ECA) and internal carotid artery (ICA) were exposed. A length of 4-0 monofilament nylon suture (18.5-19.5 mm), determined by the animal weight, with its tip rounded by heating near a flame, was advanced from the ECA into the lumen of the ICA until it blocked the origin of the MCA. Two hours after MCAO, animals were reanaesthetized with halothane and reperfusion was performed by withdrawal of the suture until the tip cleared the lumen of the ICA.
(§2) Four randomly assigned populations of animals were tested. Group 1 (n=12): water soluble PROG (PROG with balance of 2-hydroxypropyl-β-cyclodextrin) (Sigma Chemical Co., St Louis, Mo.) dissolved in saline (4.0 mg/ml) was injected intraperitoneally (4.0 mg/kg) 30 minutes before MCAO. The remaining injections (all 4.0 mg/kg) were given at 6 and 24 hours after MCAO, respectively. Group 2 (n =12): the experimental protocol was identical to that in Group 1, except that PROG (4-pregnene-3,20-dione) (Sigma Chemical Co., St Louis, Mo.) dissolved in dimethyl sulfoxide (DMSO; Sigma Chemical Co., St Louis, Mo.) (8.0 mg/ml), instead of water soluble PROG, was administered. Group 3 (n=12): the experimental protocol was identical to that in group 2, except that the initial injection was delayed to the onset of reperfusion (2 hours after MCAO). Group 4 (n=12): the experimental protocol was the same as that in Group 2, except that the same volume of DMSO without PROG (0.5 ml/kg) as in Group 2 was administered.
(§3) All animals were weighed before surgery for MCAO and at 24 and 48 hours after MCAO. Neurological abnormalities were also evaluated 24 and 48 hours after MCAO using the scale (0-4) described by Z. Longa et al., Stroke, 20, 84 (1989). Rats were held gently by the tail, suspended one meter above the floor, and observed for forelimb flexion. […] Rats that consistently flexed the left forelimb (contralateral to the injured hemisphere) accompanying flexion of the wrist toward left without any other abnormality were graded 1. Rats that were allowed to move about freely and circled toward the paretic side consistently were graded 2. Rats that fell down to the left losing the ability to walk were graded 3.
(§4) For parametric variables, a one way ANOVA was applied to determine the statistical significance of differences among groups. If a significant difference was detected, then two sample t-tests with Bonferroni correction were performed to evaluate differences between control and PROG treated groups. Paired t-tests were performed on physiological parameters before and after administration of PROG and DMSO within each group. Values presented in this study are mean ±S.E.M. A probability value less than 0.05 was considered significant.

cerebral contusion = conditions: one hour after the cerebral trauma; cited from earlier work
in vivo = conditions: rat, ip, 4 mg/kg, plasma level of PROG
[6] = Physiological variables (blood pH, pCO2, pO2, blood pressure) before and after injection, rat MCAO; format: in vivo, Male Wistar rats; conditions: for Mean Blood Pressure / pCO2 / pH / pO2: n=12, mean ± S.E.M.
[7] = circulating PROG; cited from earlier work
global cerebral ischemia = conditions: 7-day pretreatment; cited from earlier work
[8] = tested on: middle cerebral artery occlusion rats; conditions: one hour prior to MCAO; early stages of ischemia; cited from earlier work
[9] = Body weight loss after MCAO, Example 1; conditions: for Body weight loss: mean ± S.E.M.
Description: as §1, §2, §3, §4

stroke patients = conditions: cited from earlier work
[10] = both groups of regular PROG treated animals (pre- and post-MCAO), 4.0 mg/kg i.p.
[11] = 20 min post-injection, 4.0 mg/kg i.p. 30 min before MCAO
[12] = 20 min post-injection, 4.0 mg/kg i.p. 2 h after MCAO
[13] = pre-injection, group 4.0 mg/kg i.p. 30 min before MCAO
[14] = pre-injection, group 4.0 mg/kg i.p. 2 h after MCAO

CC(=O)[C@H]1CC[C@H]2[C@@H]3CCC4=CC(=O)CC[C@]4(C)[C@H]3CC[C@]12C [PROG, 4-pregnene-3,20-dione]
% Infarct volume (to the contralateral hemisphere) ([1]; 4.0 mg/kg i.p. 30 min before, 6 and 24 h after MCAO): 21.5 ± 2.9%
% Infarct volume (to the contralateral hemisphere) ([1]; 4.0 mg/kg i.p. first dose 2 h after MCAO): 23.1 ± 2.3%
decrease of percent infarct volume compared with DMSO treated control group ([1]; delayed treated (2 h after MCAO), P=0.027): 34%
decrease of percent infarct volume compared with DMSO treated control group ([1]; first dose 30 min before MCAO, DMSO dissolved PROG P=0.018, water soluble PROG P=0.290 (not significant)): 39%
effectiveness 2 hours after onset of MCAO versus prior to onset ([1]; 2 h after onset vs prior to onset of MCAO): as effective
GABA-evoked Cl currents (GABA receptor [2]): potentiating GABA-evoked Cl currents
GABA-mediated inhibition of neuronal activity (GABA receptor [3]): enhance GABA-mediated inhibition of neuronal activity
CNS actions ([4]; PROG and its related metabolites): CNS depressants and exert anesthetic, anticonvulsant and anxiolytic actions
anticonvulsant activity ([4]; in vivo): possesses anticonvulsant activity
Neurologic Score ([5]; 24 h after MCAO, 4.0 mg/kg i.p. first dose 30 min before MCAO): 1.4 ± 0.1 score
Neurologic Score ([5]; 24 h after MCAO, 4.0 mg/kg i.p. first dose 2 h after MCAO): 1.4 ± 0.1 score
Neurologic Score ([5]; 48 h after MCAO, 4.0 mg/kg i.p. first dose 30 min before MCAO): 1.4 ± 0.1 score
Neurologic Score ([5]; 48 h after MCAO, 4.0 mg/kg i.p. first dose 2 h after MCAO): 1.4 ± 0.1 score
neurological function compared with DMSO group [5, 10]: improved neurological function
edema resulting from cerebral contusion (cerebral contusion): reduced edema
concentration at 4 h (in vivo): 41.9 ng/mL
absorption by the intraperitoneal route (4.0 mg/kg i.p., DMSO dissolved, n=2): absorbed rapidly
plasma level of PROG (rat, in vivo, ip, 4 mg/kg, 4 h): 70.7 ng/mL
Mean Blood Pressure [6, 11]: 95 ± 2 mm Hg
pCO2 [6, 11]: 39 ± 2 mm Hg
pH [6, 11]: 7.43 ± 0.02
pO2 [6, 11]: 135 ± 5 mm Hg
Mean Blood Pressure [6, 12]: 103 ± 3 mm Hg
pCO2 [6, 12]: 36 ± 1 mm Hg
pH [6, 12]: 7.44 ± 0.01
pO2 [6, 12]: 134 ± 3 mm Hg
physiological variables before and after injection ([6]; before vs 20 min after initial treatment, 4.0 mg/kg i.p.): no significant difference
Mean Blood Pressure [6, 13]: 94 ± 3 mm Hg
pCO2 [6, 13]: 41 ± 1 mm Hg
pH [6, 13]: 7.44 ± 0.01
pO2 [6, 13]: 134 ± 4 mm Hg
Mean Blood Pressure [6, 14]: 107 ± 3 mm Hg
pCO2 [6, 14]: 36 ± 1 mm Hg
pH [6, 14]: 7.46 ± 0
pO2 [6, 14]: 133 ± 4 mm Hg
passage through the blood-brain barrier [7]: easily passes through the blood-brain barrier
neuroprotective activity following global cerebral ischemia (global cerebral ischemia): exhibited neuroprotective activity following global cerebral ischemia only after a 7-day pretreatment regimen
brain edema [8]: reduce brain edema in the early stages of ischemia
Body weight loss ([9]; 24 h after MCAO, 4.0 mg/kg i.p. first dose 30 min before MCAO, DMSO group 40.4 ± 3.4): 31.1 ± 2.6 grams
Body weight loss ([9]; 24 h after MCAO, 4.0 mg/kg i.p. first dose 2 h after MCAO, DMSO group 40.4 ± 3.4): 33.8 ± 1.9 grams
Body weight loss ([9]; 48 h after MCAO, 4.0 mg/kg i.p. first dose 30 min before MCAO, DMSO group 19.7 ± 2.9): 8.8 ± 2.2 grams
Body weight loss ([9]; 48 h after MCAO, 4.0 mg/kg i.p. first dose 2 h after MCAO, DMSO group 19.7 ± 2.9): 10.0 ± 3.1 grams
body weight loss compared with DMSO group [9, 10]: reduced body weight loss

C[C@H]1C[C@@H]2[C@H]([C@@H](O)C[C@@]3(C)[C@H]2CC[C@]3(O)C(=O)CO)[C@@]2(C)C=CC(=O)C=C12 [methylprednisolone]
outcome, steroid vs non-steroid treated patients (stroke patients): no significant difference in outcome

C[C@@H]1C[C@H]2[C@@H]3CCC4=CC(=O)C=C[C@]4(C)[C@@]3(F)[C@@H](O)C[C@]2(C)[C@@]1(O)C(=O)CO [dexamethasone]
outcome, steroid vs non-steroid treated patients (stroke patients): no significant difference in outcome
